{"source": "patent US8784856B2", "about": "“Meadowfoam-based bioherbicide products” (The State of Oregon Acting by and Through the State Boad of …, priority 2007, dated 2014)", "key": {"[1]": {"tested_on": "Wheat", "details": "in vivo; cited from earlier work"}, "[2]": {"tested_on": "fungi", "details": "cited from earlier work"}, "[3]": {"tested_on": "potato cyst Nematode (Globodera rostochiensis Ct. Woll)", "details": "in vivo; cited from earlier work"}, "[4]": {"tested_on": "root lesion nematode (Pratylenchus neglectus)", "details": "in vivo; cited from earlier work"}, "[5]": {"tested_on": "postharvest fruit pathogens", "details": "cited from earlier work"}, "[6]": {"tested_on": "downy brome (Bromus tectorum) seeds", "assay": "Assay for herbicidal activity: downy brome seed germination in soil", "assay_type": "in vivo", "details": "for inhibition of downy brome germination at the highest concentration tested: 0.89 mg g^−1, FIG. 11; for effectiveness in inhibiting downy brome germination, in words: FIG. 11, comparison of compounds 1-4; for activity as seed germination inhibitors (downy brome): compared with MBITC, 82 hours and 168 hours, FIG. 8", "procedure": "Assay for herbicidal activity. About 45 g of clean soil was weighed into 10-cm diameter Petri dishes. For germination testing of individual compounds (1-4), 15.0 mL of test solution was added to each dish. Glucolimanthin 1 (GLN) was dissolved in water and compounds 2-4 in ethanol. The ethanolic solutions were applied to the dishes, allowed to evaporate overnight in a hood, and then 15 mL of water was added to the dishes. Meal products were mixed with soil, followed by the addition of 15 mL of water. Fifteen seeds of Bromus tectorum were placed in concentric circles within each dish. Petri dishes with lids were placed in an incubator at 20° C. during day time (8 hrs) and at 15° C. at night time (16 hrs) for 7 days. Germination was recorded as root emergence."}, "[7]": {"assay": "Degradation of GLN in aqueous FeSO4 solution (HPLC)", "assay_type": "physicochemical", "details": "1 mM GLN with 10 mM FeSO4 at room temperature; FIG. 3B", "description": "HPLC. The HPLC equipment consisted of a Waters Delta 600 solvent delivery system, a Waters 717 plus Autosampler, a Waters 2996 photodiode array detector, a Waters 600 controller and a data acquisition/processing computer with Empower™ software (Waters, Milford, Mass.). In HPLC system 1, separations were achieved on a reverse-phase Lichrosphere 5 μm C18 column (4×250 mm, Phenomenex, Torrance, Calif.). The HPLC solvents were 0.1% aqueous trifluoroacetic acid (solvent A) and MeCN (solvent B). A linear solvent gradient was employed starting from 5% solvent B in solvent A to 100% B over 30 min at a flow rate of 1.0 mL/min. After returning to the starting conditions in 1 min, the column was equilibrated for 10 min before the next injection. The injection volume was 20 μL. On-line UV spectra were recorded in the range 220-500 nm and the λ274 nm trace was used for calculation of peak areas. Analyte concentrations were determined from calibration curves constructed for each analyte."}, "[8]": {"tested_on": "velvetleaf (Abutilon theophrasti)", "details": "in vivo; cited from earlier work"}, "[9]": {"tested_on": "Wheat", "details": "in vivo; cited from earlier work", "remark": "listed apart in the source"}, "[10]": {"tested_on": "fall armyworm (Lepidoptera: Noctuidae)", "details": "compared with benzyl ITC and synthetic analogs; cited from earlier work"}, "[11]": {"tested_on": "Aphamyces euteiches", "details": "cited from earlier work"}, "[12]": {"tested_on": "velvetleaf, sicklepod, milo, and pitted morning glory", "details": "formulated as granules; all weed types; cited from earlier work"}, "[13]": {"tested_on": "benzo[a]pyrene-induced stomach tumors", "details": "mice dosed with test compound; cited from earlier work"}, "[14]": {"tested_on": "Helicobacter pylori", "details": "cited from earlier work"}, "[15]": {"tested_on": "human retinal pigment epithelial cells, keratinocytes, and mouse leukemia cells", "details": "cited from earlier work"}, "[16]": {"tested_on": "skin damage by UV radiation", "details": "human subjects, topically applied; cited from earlier work"}, "[17]": {"tested_on": "phase 2 enzymes", "details": "after treatment; cited from earlier work"}, "[18]": {"tested_on": "phase II enzymes (e.g., NAD(P)H:quinone reductase)", "details": "cited from earlier work"}}, "note": "Entries after “also recorded” stand apart in the source; their conditions may differ."}
{"smiles": "S=C=NCCc1ccccc1", "note": "[2-phenylethyl ITC]", "values": [{"measurement": "order of effectiveness against wheat", "setting": "[1]", "value": "2-phenylethyl ITC>allyl ITC>benzyl ITC"}, {"measurement": "activity against fungi", "setting": "[2]", "value": "good activity"}, {"measurement": "activity on potato cyst nematode", "setting": "[3]", "value": "performed well"}, {"measurement": "effect on root lesion nematode", "setting": "[4]", "value": "suppression"}]}
{"smiles": "C=CCCN=C=S", "note": "[3-butenyl ITC]", "values": [{"measurement": "activity against spore germination", "setting": "[5]", "value": "lower activity"}]}
{"smiles": "Oc1ccc(CN=C=S)cc1", "note": "[4-hyxdroxybenzl]", "values": [{"measurement": "activity against spore germination", "setting": "[5]", "value": "equal"}]}
{"smiles": "COc1cccc(C/C(=N/OS(=O)(=O)O)S[C@@H]2O[C@H](CO)[C@@H](O)[C@H](O)[C@H]2O)c1", "note": "[GLN, glucolimnanthin]", "values": [{"measurement": "inhibition of downy brome germination at the highest concentration tested", "setting": "[6]", "value": "only slightly inhibited"}, {"measurement": "effectiveness in inhibiting downy brome germination, in words", "setting": "[6]", "value": "least effective"}, {"measurement": "effect of GLN on downy brome seed germination", "setting": "[6]; levels corresponding to those found in MSM (0.4 mg GLN per g soil), 7 days, FIG. 7", "value": "no germination inhibitory activity; also recorded: no effect; also recorded: No difference"}, {"measurement": "degradation of GLN", "setting": "[7]", "value": "did not result in significant degradation"}]}
{"smiles": "COc1cccc(CN=C=S)c1", "note": "[MBITC, 3-Methoxybenzyl isothiocyanate]", "values": [{"measurement": "inhibition of downy brome germination at the highest concentration tested", "setting": "[6]", "value": "failed to completely inhibit"}, {"measurement": "effectiveness in inhibiting downy brome germination, in words", "setting": "[6]", "value": "not as effective"}, {"measurement": "activity as seed germination inhibitors (downy brome)", "setting": "[6]", "value": "moderately active"}, {"measurement": "seed germination inhibitory / allelopathic activity against velvetleaf", "setting": "[8]", "value": "greater activity"}, {"measurement": "seed germination inhibitory / allelopathic activity against wheat", "setting": "[9]", "value": "greater activity"}, {"measurement": "effectiveness against armyworm", "setting": "[10]", "value": "more effective"}]}
{"smiles": "COc1cccc(CC#N)c1", "note": "[MPAN, 3-Methoxyphenylacetonitrile]", "values": [{"measurement": "inhibition of downy brome germination at the highest concentration tested", "setting": "[6]", "value": "completely inhibiting"}, {"measurement": "effectiveness in inhibiting downy brome germination, in words", "setting": "[6]", "value": "most effective"}, {"measurement": "activity as seed germination inhibitors (downy brome)", "setting": "[6]", "value": "more active"}, {"measurement": "seed germination inhibitory / allelopathic activity against velvetleaf", "setting": "[8]", "value": "seed germination inhibitory effects"}, {"measurement": "seed germination inhibitory / allelopathic activity against wheat", "setting": "[9]", "value": "seed germination inhibitory effects"}]}
{"smiles": "C=CCN=C=S", "note": "[allyl ITC]", "values": [{"measurement": "order of effectiveness against wheat", "setting": "[1]", "value": "2-phenylethyl ITC>allyl ITC>benzyl ITC"}, {"measurement": "activity against spore germination", "setting": "[5]", "value": "equal"}, {"measurement": "performance against pathogen causing pea root rot", "setting": "[11]", "value": "performed well"}, {"measurement": "activity on potato cyst nematode", "setting": "[3]", "value": "performed well"}]}
{"smiles": "S=C=NCc1ccccc1", "note": "[benzyl ITC]", "values": [{"measurement": "order of effectiveness against wheat", "setting": "[1]", "value": "2-phenylethyl ITC>allyl ITC>benzyl ITC"}, {"measurement": "inhibition of weed germination", "setting": "[12]", "value": "inhibition of germination"}, {"measurement": "activity against spore germination", "setting": "[5]", "value": "lower activity"}, {"measurement": "activity against fungi", "setting": "[2]", "value": "good activity"}, {"measurement": "activity on potato cyst nematode", "setting": "[3]", "value": "performed well"}]}
{"smiles": "CN=C=S", "note": "[methyl ITC]", "values": [{"measurement": "performance against pathogen causing pea root rot", "setting": "[11]", "value": "performed well"}]}
{"smiles": "C[S+]([O-])CCCCN=C=S", "note": "(stereo not shown) [sulforaphane, 4-methylsulfinylbuthyl ITC]", "values": [{"measurement": "effect on benzo[a]pyrene-induced stomach tumors", "setting": "[13]", "value": "blocked"}, {"measurement": "antibacterial properties against Helicobacter pylori", "setting": "[14]", "value": "bacteriostatic and bactericidal properties"}, {"measurement": "glutathione after treatment", "setting": "[15]", "value": "increase"}, {"measurement": "protection of cells against oxidative damage", "setting": "[15]", "value": "powerful and prolonged protection"}, {"measurement": "erythema and inflammation induced by UV radiation", "setting": "[16]", "value": "reduced"}, {"measurement": "phase 2 enzymes in mouse and human skin", "setting": "[17]", "value": "Up-regulation"}, {"measurement": "induction of phase II enzymes", "setting": "[18]", "value": "high activity"}]}
{"smiles": "CS/C=C/CCN=C=S", "note": "[trans-4-methylthio-3-butenyl ITC]", "values": [{"measurement": "activity against spore germination", "setting": "[5]", "value": "equal"}, {"measurement": "activity against fungi", "setting": "[2]", "value": "good activity"}]}
